According to patent US8013163B2 (Astex Therapeutics Limited, priority 2005, dated 2011):
Counter-ions that a name gives are not always drawn.

What was measured:
HCT-1 16 cells = assay: Anti-proliferative activity (Alamar Blue assay); format: cell-based; conditions: Homo sapiens, HCT-116, 72 hours
Protocol: The anti-proliferative activities of a compound can be determined by measuring the ability of the compound to inhibition of cell growth in a number of cell lines. Inhibition of cell growth is measured using the Alamar Blue assay (Nociari, M. M, Shalev, A., Benias, P., Russo, C. Journal of Immunological Methods 1998, 213, 157-167). The method is based on the ability of viable cells to reduce resazurin to its fluorescent product resorufin. For each proliferation assay cells are plated onto 96 well plates and allowed to recover for 16 hours prior to the addition of inhibitor compounds for a further 72 hours. At the end of the incubation period 10% (v/v) Alamar Blue is added and incubated for a further 6 hours prior to determination of fluorescent product at […]. In the case of the non-proliferating cell assay cells are maintained at confluence for 96 hour prior to the addition of inhibitor compounds for a further 72 hours. The number of viable cells is determined by Alamar Blue assay as before. Cell lines can be obtained from the ECACC (European Collection of cell Cultures).

[1] = Stability of acetate buffered salt solution (autoclaving, heating, freeze-thaw); format: physicochemical
Protocol: Autoclaving at 121° C. for 15 minutes, followed by heating the solution further at 40° C., 55° C. or 75° C. for 10-12 days, were carried out on the acetate buffered salt solution.

[2] = Solubility of the mesylate salt in aqueous solution at pH 1 to 11 (UV-Vis assay); format: physicochemical
Protocol: Solutions were prepared by titrating standard hydrochloric acid with dilute sodium hydroxide solution to a desired pH. […] These solutions were then used to assess the solubility of 4-(2,6-dichlorobenzoylamino)-1/i-pyrazole-3-carboxylic acid piperidin-4-ylamide methanesulphonate.
In each experiment, 150 mg of the methanesulphonate salt was weighed into a 5 ml clear vial and 3-4 ml of a solution of a given pH was added. […] In each case, the solution was then filtered through a 0.22 μm PVDF filter, the pH of the clear solution obtained was recorded, and the solution was assayed for methanesulphonate salt content using a UV-Vis spectrophotometer and standard solutions of the salt.

[3] = Stability trial of methanesulphonate salt at 40° C./75% relative humidity for six months; format: physicochemical
Protocol: Samples of the methanesulphonate salt of Example 1 were stored in sealed bags inside a sealed container at a temperature of 40° C. and in an atmosphere of 75% relative humidity for a period of six months. At periods of 1 month, 3 months and 6 months, various tests were carried out to determine whether any changes to the purity or physical state of the salt had occurred. The tests were as follows:
(a) Visual examination of the colour and physical appearance of the salt.
(b) Fourier Transform Infra Red (FTIR) spectroscopy—comparison with reference standard spectrum.
(c) Determination of melting point by differential scanning calorimetry (DSC).
(d) Determination of water content by a coulometric method using the coulometric reagent AKX.
(e) Analysis of impurities by HPLC.

[4] = Exposure at 40° C./approximately 75% relative humidity with XRPD and HPLC analysis; format: physicochemical; conditions: approximately 75% relative humidity
Protocol: (ii) In a separate test, approximately 10 mg of the mesylate salt as prepared above was pressed flat onto a glass slide to achieve a high surface area and placed in a dessicator containing a saturated aqueous solution of sodium chloride. This in turn was placed in an incubator held at 40° C. to provide an atmosphere of approximately 75% relative humidity. The sample was removed on 8 and 18 days and the XRPD profiles of the sample at these times were compared to the XRPD profile of the salt prior to commencement of the test.

[5] = 40° C./75% relative humidity, t = 0
[6] = 40° C./75% relative humidity, t = 1 month
[7] = 40° C./75% relative humidity, t = 3 months
[8] = 40° C./75% relative humidity, t = 6 months

Question: Which IC50 (HCT-1 16 cells) does the source give for `O=C(NC1CCNCC1)c1n[nH]cc1NC(=O)c1c(Cl)cccc1Cl` [mesylate salt, 4-(2,6-dichlorobenzoylamino)-1H-pyrazole-3-carboxylic acid piperidin-4-ylamide methanesulphonate] here?
Answer: 110 nM

Question: What about the “precipitation in freeze-thaw stability tests” value ([1]; acetate buffered salt solution) of the same molecule?
Answer: did not result in precipitation

Question: What about the “stability of solution pH and salt in freeze-thaw tests” value ([1]; acetate buffered salt solution) of the same molecule?
Answer: stable

Question: And the “stability of solution pH and salt” value ([1]; acetate buffered solution, autoclaving at 121° C. for 15 minutes, then 40° C., 55° C. or 75° C. for 10-12 days)?
Answer: stable

Question: What about the solubility at 3 h ([2]; aqueous solution, 4 °C, pH 0.26, simulated gastric fluid, thermodynamic from solid, initial pH 0.26, final pH 0.26) of the same molecule?
Answer: 9.85 mg/mL

Question: And the solubility at 3 h ([2]; aqueous solution, 4 °C, pH 1, simulated gastric fluid, thermodynamic from solid, initial pH 1.00, final pH 1.00)?
Answer: 39.4 mg/mL

Question: What about the solubility at 3 h ([2]; aqueous solution, 4 °C, pH 2.51, aqueous buffer, thermodynamic from solid, initial pH 2.51, final pH 2.51) of the same molecule?
Answer: 41.5 mg/mL

Question: What about the solubility at 3 h ([2]; aqueous solution, 4 °C, pH 4.99, aqueous buffer, thermodynamic from solid, initial pH 4.99, final pH 4.99) of the same molecule?
Answer: 42.4 mg/mL

Question: And the solubility at 3 h ([2]; aqueous solution, 4 °C, pH 7.34, aqueous buffer, thermodynamic from solid, initial pH 7.34, final pH 7.34)?
Answer: 45.9 mg/mL

Question: And the solubility at 3 h ([2]; aqueous solution, 4 °C, pH 7.4, aqueous buffer, thermodynamic from solid, initial pH 9.04, final pH 7.40)?
Answer: 30.4 mg/mL

Question: And the solubility at 3 h ([2]; aqueous solution, 4 °C, pH 7.69, aqueous buffer, thermodynamic from solid, initial pH 7.69, final pH 7.69)?
Answer: 37.9 mg/mL

Question: What about the solubility at 3 h ([2]; aqueous solution, 4 °C, pH 7.9, aqueous buffer, thermodynamic from solid, initial pH 10.97, final pH 7.90) of the same molecule?
Answer: 30.9 mg/mL

Question: What about the solubility at 3 h ([2]; aqueous solution, 4 °C, pH 8.17, aqueous buffer, thermodynamic from solid, initial pH 8.17, final pH 8.17) of the same molecule?
Answer: 43.2 mg/mL

Question: What about the solubility at 3 h ([2]; aqueous solution, pH 0.37, simulated gastric fluid, thermodynamic from solid, ambient temperature, initial pH 0.26, final pH 0.37) of the same molecule?
Answer: 15.7 mg/mL

Question: And the solubility at 6 days ([2]; aqueous solution, pH 0.504, simulated gastric fluid, thermodynamic from solid, Solution 1 after 6 days in the laboratory, precipitate filtered, pH 0.504 / 0.50)?
Answer: 13.9 mg/mL

Question: What about the solubility at 3 h ([2]; aqueous solution, pH 1.06, simulated gastric fluid, thermodynamic from solid, ambient temperature, initial pH 1.00, final pH 1.06) of the same molecule?
Answer: 40.3 mg/mL

Question: What about the solubility at 3 h ([2]; aqueous solution, pH 3, aqueous buffer, thermodynamic from solid, ambient temperature, initial pH 2.51, final pH 3.00) of the same molecule?
Answer: 44.9 mg/mL

Question: And the solubility at 3 h ([2]; aqueous solution, pH 6.73, aqueous buffer, thermodynamic from solid, ambient temperature, initial pH 4.99, final pH 6.73)?
Answer: 44.3 mg/mL

Question: And the solubility at 3 h ([2]; aqueous solution, pH 7.3, aqueous buffer, thermodynamic from solid, ambient temperature, initial pH 7.34, final pH 7.30)?
Answer: 44.5 mg/mL

Question: And the solubility at 3 h ([2]; aqueous solution, pH 7.4, aqueous buffer, thermodynamic from solid, ambient temperature, initial pH 8.17, final pH 7.40)?
Answer: 44.5 mg/mL

Question: And the solubility at 3 h ([2]; aqueous solution, pH 7.4, aqueous buffer, thermodynamic from solid, ambient temperature, initial pH 9.04, final pH 7.4)?
Answer: 35.4 mg/mL

Question: And the solubility at 3 h ([2]; aqueous solution, pH 7.6, aqueous buffer, thermodynamic from solid, ambient temperature, initial pH 10.97, final pH 7.6)?
Answer: 34.6 mg/mL

Question: What about the solubility at 3 h ([2]; aqueous solution, pH 7.9, aqueous buffer, thermodynamic from solid, ambient temperature, initial pH 7.69, final pH 7.90) of the same molecule?
Answer: 42.1 mg/mL

Question: What about the “behaviour of solution on standing” value ([2]; pH>7 and pH<3, ambient temperature) of the same molecule?
Answer: precipitation of the salt was observed on standing

Question: And the overall stability ([3]; 40° C., 75% relative humidity, six months)?
Answer: good stability

Question: What about the “(a) Description” value [3, 5] of the same molecule?
Answer: Off-white solid

Question: What about the “(b) Identity by FTIR” value [3, 5] of the same molecule?
Answer: Conforms to

Question: What about the “(c) Melting point by DSC, melting endotherm” value (from here on “(c) Melting point by DSC”) [3, 5] of the same molecule?
Answer: 367.7 °C

Question: And the “(d) Water content” value [3, 5]?
Answer: <0.1% w/w

Question: And the “(e) Impurities (by HPLC) Total impurities” value (shortened to “(e) Impurities”) [3, 5]?
Answer: 0.52% area

Question: What about the Chemical purity [3, 5] of the same molecule?
Answer: 99.48% area

Question: And the “Impurity RRT 0.812 (by HPLC)” value [3, 5]?
Answer: 0.07% area

Question: And the “Impurity RRT 1.196 (by HPLC)” value [3, 5]?
Answer: 0.01% area

Question: What about the “Impurity RRT 1.226 (by HPLC)” value [3, 5] of the same molecule?
Answer: 0.02% area

Question: What about the “Impurity RRT 1.303 (by HPLC)” value [3, 5] of the same molecule?
Answer: 0.02% area

Question: What about the “Impurity RRT 1.318 (by HPLC)” value [3, 5] of the same molecule?
Answer: 0.03% area

Question: What about the “Impurity RRT 1.484 (by HPLC)” value [3, 5] of the same molecule?
Answer: 0.15% area

Question: What about the “Impurity RRT 1.526 (by HPLC)” value [3, 5] of the same molecule?
Answer: 0.03% area

Question: What about the “Impurity RRT 1.680 (by HPLC)” value [3, 5] of the same molecule?
Answer: 0.19% area

Question: What about the “(a) Description” value [3, 6] of the same molecule?
Answer: Off-white solid

Question: And the “(b) Identity by FTIR” value [3, 6]?
Answer: Conforms to

Question: And the “(c) Melting point by DSC” value [3, 6]?
Answer: 368.3 °C

Question: What about the “(d) Water content” value [3, 6] of the same molecule?
Answer: <0.1% w/w

Question: And the “(e) Impurities” value [3, 6]?
Answer: 0.49% area

Question: And the Chemical purity [3, 6]?
Answer: 99.51% area

Question: And the “Impurity RRT 0.812 (by HPLC)” value [3, 6]?
Answer: 0.07% area

Question: What about the “Impurity RRT 1.196 (by HPLC)” value [3, 6] of the same molecule?
Answer: 0.02% area

Question: What about the “Impurity RRT 1.303 (by HPLC)” value [3, 6] of the same molecule?
Answer: 0.06% area

Question: And the “Impurity RRT 1.484 (by HPLC)” value [3, 6]?
Answer: 0.17% area

Question: What about the “Impurity RRT 1.680 (by HPLC)” value [3, 6] of the same molecule?
Answer: 0.17% area

Question: And the “(a) Description” value [3, 7]?
Answer: Off-white solid

Question: And the “(b) Identity by FTIR” value [3, 7]?
Answer: Conforms to

Question: What about the “(c) Melting point by DSC” value [3, 7] of the same molecule?
Answer: 375.5 °C

Question: And the “(d) Water content” value [3, 7]?
Answer: <0.1% w/w

Question: What about the “(e) Impurities” value [3, 7] of the same molecule?
Answer: 0.50% area

Question: What about the Chemical purity [3, 7] of the same molecule?
Answer: 99.50% area

Question: What about the “Impurity RRT 0.812 (by HPLC)” value [3, 7] of the same molecule?
Answer: 0.06% area

Question: What about the “Impurity RRT 1.226 (by HPLC)” value [3, 7] of the same molecule?
Answer: 0.02% area

Question: What about the “Impurity RRT 1.318 (by HPLC)” value [3, 7] of the same molecule?
Answer: 0.04% area

Question: And the “Impurity RRT 1.484 (by HPLC)” value [3, 7]?
Answer: 0.17% area

Question: What about the “Impurity RRT 1.526 (by HPLC)” value [3, 7] of the same molecule?
Answer: 0.04% area

Question: What about the “Impurity RRT 1.680 (by HPLC)” value [3, 7] of the same molecule?
Answer: 0.17% area

Question: And the “(a) Description” value [3, 8]?
Answer: Off-white solid

Question: What about the “(b) Identity by FTIR” value [3, 8] of the same molecule?
Answer: Conforms to

Question: And the “(c) Melting point by DSC” value [3, 8]?
Answer: 369.1 °C

Question: What about the “(d) Water content” value [3, 8] of the same molecule?
Answer: <0.1% w/w

Question: What about the “(e) Impurities” value [3, 8] of the same molecule?
Answer: 0.50% area

Question: And the Chemical purity [3, 8]?
Answer: 99.50% area

Question: What about the “Impurity RRT 0.812 (by HPLC)” value [3, 8] of the same molecule?
Answer: 0.06% area

Question: And the “Impurity RRT 1.226 (by HPLC)” value [3, 8]?
Answer: 0.02% area

Question: And the “Impurity RRT 1.318 (by HPLC)” value [3, 8]?
Answer: 0.04% area

Question: And the “Impurity RRT 1.484 (by HPLC)” value [3, 8]?
Answer: 0.17% area

Question: What about the “Impurity RRT 1.526 (by HPLC)” value [3, 8] of the same molecule?
Answer: 0.03% area

Question: And the “Impurity RRT 1.680 (by HPLC)” value [3, 8]?
Answer: 0.17% area

Question: And the “Impurity RRT 1.682 (by HPLC)” value [3, 8]?
Answer: 0.01% area

Question: What about the “changes in XRPD profile” value ([4]; 8 and 18 days) of the same molecule?
Answer: No changes were observed

Question: And the “degradation by HPLC analysis” value ([4]; up to 18 days)?
Answer: no degradation
